We go through nine molecules from patent US20110166121A1 (LG LIFE SCIENCES LTD., priority 2008, published 2011).

One assay deals with T1, Human P2Y12 receptor (Homo sapiens, UniProt Q9H244).
T1 construct: expressed in transfected cells; host or cells: HEK cells
Kind of assay: Human P2Y12 receptor cell membrane binding assay with [3H] 2-Mes-ADP. Conditions: 1 nM [3H] 2-Mes-ADP, membranes of HEK cells expressing P2Y12 receptor; read-out: Binding activity (IC50). In outline: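 Competition binding used 1 nM [3H]2-MeS-ADP on P2Y12-expressing HEK cell membranes for 1 h at room temperature, followed by filtration and scintillation counting.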

Assay [1] has as its system Human platelet aggregation caused by ADP. Nature of the assay: Inhibition of ADP-induced platelet aggregation (Mimic-human PRP). The assay is classed as cell-based. The conditions noted are these: 20 μM ADP, human platelet concentrate diluted with PPP, absorption at 595 nm. In outline: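 Ki came from non-linear sigmoidal fits of inhibition, measured as the 3-min rise in absorbance at 595 nm after 20 μM ADP, relative to 0/20 μM ADP controls. Platelets (3–4×10^8/mL in PPP-diluted human PRP) were exposed to 0.01–30 μM compound for 20 min at room temperature beforehand.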

T1 sequence (Q9H244 whole entry): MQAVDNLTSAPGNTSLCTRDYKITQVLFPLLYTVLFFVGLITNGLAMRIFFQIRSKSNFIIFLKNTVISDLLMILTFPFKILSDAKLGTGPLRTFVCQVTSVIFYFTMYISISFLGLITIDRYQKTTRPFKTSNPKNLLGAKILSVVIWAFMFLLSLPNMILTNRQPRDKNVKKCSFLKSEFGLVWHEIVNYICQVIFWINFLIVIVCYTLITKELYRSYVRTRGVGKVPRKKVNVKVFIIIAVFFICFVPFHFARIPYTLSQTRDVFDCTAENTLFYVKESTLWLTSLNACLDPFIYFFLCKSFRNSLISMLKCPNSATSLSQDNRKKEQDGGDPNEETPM

The term IC50 denotes the point on the concentration scale where inhibition reaches its midpoint. Broadly, the Ki is the equilibrium dissociation constant of an inhibitor or competing ligand from its target. With `CCCc1cc2c(N3CCn4c(nnc4C(F)(F)F)C3)nc(-c3nnc(CCO)o3)nc2s1` [Example 4-38, 2-{5-[6-Propyl-4-(3-trifluoromethyl-5,6-dihydro-8H-[1,2,4]triazolo[4,3-a]pyrazin-7-yl)thieno[2,3-d]pyrimidin-2-yl]-[1,3,4]oxadiazol-2-yl}ethanol], the IC50 at Human P2Y12 receptor was found to be 0.32 µM. For the same molecule, the Ki in assay [1] worked out at 0.25 µM.
In the same order, the values of `CCCc1cc2c(N3CCn4c(nnc4C(F)(F)F)C3)nc(-c3nnc(N)o3)nc2s1` [Example 4-39, 5-[6-Propyl-4-(3-trifluoromethyl-5,6-dihydro-8H-[1,2,4]triazolo[4,3-a]pyrazin-7-yl)thieno[2,3-d]pyrimidin-2-yl]-[1,3,4]oxadiazol-2-ylamine] are 0.1 µM and 0.16 µM.
Consider `CCCc1cc2c(N3CCn4c(nnc4C(F)(F)F)C3)nc(-c3nnc(CC(=O)OCC)o3)nc2s1` [Example 4-40, {5-[6-Propyl-4-(3-trifluoromethyl-5,6-dihydro-8H-[1,2,4]triazolo[4,3-a]pyrazin-7-yl)thieno[2,3-d]pyrimidin-2-yl]-[1,3,4]oxadiazol-2-yl}acetic acid ethyl ester], for which the 50% inhibitory concentration (IC50) on Human P2Y12 receptor was found to be 0.23 µM. The molecule also came in with a Ki in assay [1] of 0.27 µM.
The like results for `CCCc1cc2c(N3CCn4c(nnc4C(F)(F)F)C3)nc(-c3nnc(CC(=O)O)o3)nc2s1` [Example 4-41, {5-[6-Propyl-4-(3-trifluoromethyl-5,6-dihydro-8H-[1,2,4]triazolo[4,3-a]pyrazin-7-yl)thieno[2,3-d]pyrimidin-2-yl]-[1,3,4]oxadiazol-2-yl}acetic acid] were, in that order, 0.41 µM and 0.7 µM.
In the same order, the values of `CCCc1cc2c(N3CCn4c(nnc4C(F)(F)F)C3)nc(-c3nnc(Cc4ccccc4)o3)nc2s1` [Example 4-42, 7-[2-(5-Benzyl-[1,3,4]oxadiazol-2-yl)-6-propyl-thieno[2,3-d]pyrimidin-4-yl]-3-trifluoromethyl-5,6,7,8-tetrahydro-[1,2,4]triazolo[4,3-a]pyrazine] are 0.029 µM and 0.16 µM.
On to `CCCc1cc2c(N3CCn4c(nnc4C(F)(F)F)C3)nc(-c3nnc(CC4CCCCC4)o3)nc2s1` [Example 4-43, 7-[2-(5-Cyclohexylmethyl-[1,3,4]oxadiazol-2-yl)-6-propyl-thieno[2,3-d]pyrimidin-4-yl]-3-trifluoromethyl-5,6,7,8-tetrahydro-[1,2,4]triazolo[4,3-a]pyrazine], for which the IC50 at Human P2Y12 receptor was found to be 0.147 µM. In addition, the affinity in assay [1] corresponds to a Ki of 2.7 µM.
The like results for `CCCc1cc2c(N3CCn4c(nnc4C(F)(F)F)C3)nc(-c3nnn[nH]3)nc2s1` [Example 4-44, 7-[6-Propyl-2-(1H-tetrazol-5-yl)-thieno[2,3-d]pyrimidin-4-yl]-3-trifluoromethyl-5,6,7,8-tetrahydro-[1,2,4]triazolo[4,3-a]pyrazine] were, in that order, 1.6 µM and more than 4 µM.
In the same order, the values of `CCCc1cc2c(N3CCn4c(nnc4C(F)(F)F)C3)nc(C3=N[C@H](C(=O)OC)CS3)nc2s1` [Example 4-47, (R)-2-[6-Propyl-4-(3-trifluoromethyl-5,6-dihydro-8H-[1,2,4]triazolo[4,3-a]pyrazin-7-yl)thieno[2,3-d]pyrimidin-2-yl]-4,5-dihydro-thiazole-4-carboxylic acid methyl ester] are 0.024 µM and 0.013 µM.
The like results for `CCCc1cc2c(N3CCn4c(nnc4C(F)(F)F)C3)nc(C3=N[C@H](CC(=O)OC(C)C)CS3)nc2s1` [Example 4-48, {(R)-2-[6-Propyl-4-(3-trifluoromethyl-5,6-dihydro-8H-[1,2,4]triazolo[4,3-a]pyrazin-7-yl)thieno[2,3-d]pyrimidin-2-yl]-4,5-dihydro-thiazol-4-yl}acetic acid isopropyl ester] were, in that order, 0.21 µM and 0.51 µM.
